# Test results reported in paper PMC7729733, “Biological Properties of New Chiral 2-Methyl-5,6,7,8-tetrahydroquinolin-8-amine-based Compounds” (Molecules, 2020).
# Read-outs that look alike come from different tables or passages of the source.
# Columns and labels:
# [1] = system: A2780 (ovarian carcinoma); conditions: reference compound; cited from earlier work
# [2] = system: HT-29 (colorectal adenocarcinoma); conditions: reference compound; cited from earlier work
# [3] = system: MSTO-211H (biphasic mesothelioma); conditions: reference compound; cited from earlier work
# [4] = system: CEM (human T-lymphocyte cells); conditions: read-out: IC50 CEM; reference compound; cited from earlier work
# [5] = system: HMEC-1 (human dermal microvascular endothelial cells); conditions: read-out: IC50 HMEC-1; reference compound; cited from earlier work
# [6] = system: HeLa (human cervix carcinoma cells); conditions: read-out: IC50 HeLa; reference compound; cited from earlier work
# HCT-116 = system: HCT-116; set-up: method as in PMID 30253345; conditions: cytotoxicity; cited from earlier work
# [7] = system: supercoiled plasmid pBR322 DNA; test: Unwinding assay, electrophoretic mobility of supercoiled DNA; conditions: 3 h at 37 °C
# Method: Figure 2SI. Effect of compound (R)-5a on the electrophoretic mobility of supercoiled DNA.
# Supercoiled plasmid pBR322 DNA was incubated in the absence or in the presence of (R)-5a at indicated concentrations. The effect of solvent alone on DNA was also assayed (solvent).
# Supercoiled pBR322 plasmid DNA (0.15 µg, Fermentas Life Sciences) was incubated in TAE buffer (0.04 M Tris, 0.02 M Acetic Acid, EDTA 1 mM, pH=8) with test compound at indicated concentrations for 3 h at 37 °C in 10 μL final volume. 3 μL of loading buffer (0.125% bromophenol blue, 0.125% xylene cyanol and 50% glycerol) was added to each sample and DNA was separated by electrophoresis on a 0.8% agarose gel at room temperature. The gels were stained with ethidium bromide (1 μg/mL) in TAE buffer, transilluminated by UV light, and the fluorescence emission was visualized by a CCD camera coupled to a Bio-Rad Gel Doc XR apparatus.
# (§1) (1 picture or pasted object on this page, not shown here)
# human topoisomerase I = molecular target: T1, human topoisomerase I (Homo sapiens, UniProt P11387); test: Topoisomerase I relaxation assay; format: biochemical; conditions: supercoiled pBR322; 60 min at 37 °C
# T1 construct: purchased TopoGEN
# T1 sequence (P11387 1-765): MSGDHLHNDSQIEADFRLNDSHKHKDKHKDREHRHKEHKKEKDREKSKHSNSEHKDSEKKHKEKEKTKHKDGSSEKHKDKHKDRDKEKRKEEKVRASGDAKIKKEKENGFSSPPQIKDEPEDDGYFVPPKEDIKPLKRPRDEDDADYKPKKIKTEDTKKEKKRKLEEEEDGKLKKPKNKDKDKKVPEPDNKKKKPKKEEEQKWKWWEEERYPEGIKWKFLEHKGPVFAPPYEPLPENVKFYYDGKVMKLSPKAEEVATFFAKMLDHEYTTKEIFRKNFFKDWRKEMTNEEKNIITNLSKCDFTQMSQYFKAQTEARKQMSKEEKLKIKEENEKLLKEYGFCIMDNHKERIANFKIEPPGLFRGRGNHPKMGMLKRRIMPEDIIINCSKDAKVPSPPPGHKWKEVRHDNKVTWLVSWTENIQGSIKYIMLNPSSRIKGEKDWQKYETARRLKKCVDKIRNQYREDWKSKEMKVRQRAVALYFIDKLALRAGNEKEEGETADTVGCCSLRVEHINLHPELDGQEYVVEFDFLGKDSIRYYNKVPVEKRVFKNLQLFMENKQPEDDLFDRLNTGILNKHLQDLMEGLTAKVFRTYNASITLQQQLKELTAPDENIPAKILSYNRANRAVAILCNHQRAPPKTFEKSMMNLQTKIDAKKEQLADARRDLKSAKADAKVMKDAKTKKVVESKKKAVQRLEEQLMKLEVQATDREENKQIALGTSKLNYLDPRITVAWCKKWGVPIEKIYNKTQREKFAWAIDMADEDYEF
# Method: (§2) Figure 3SI. Effect of compound (R)-5a on the relaxation of supercoiled pBR322 DNA by human recombinant topoisomerase I or II. Supercoiled plasmid pBR322 DNA (DNA) was incubated with topo I (topo I) or II in the absence (topo II) and in the presence of (R)-5a at indicated […]
# (§3) Topoisomerase I and II relaxation assay
# (§4) Supercoiled pBR322 plasmid DNA (20 ng, Fermentas Life Sciences) and 5U topoisomerase I (human topoisomerase I, TopoGEN) or alternatively, supercoiled pBR322 plasmid DNA (0.25 μg) and 1U topoisomerase II (human topoisomerase II alpha, Inspiralis) were incubated in the presence of test compound as indicated for 60 min at 37 °C in 20 µL reaction buffer.Reactions were stopped by adding 4 μL stop buffer (5% sodium dodecyl sulfate, 0.125% b romophenol blue, and 30% glycerol), 50 μg/mL proteinase K (Sigma) and incubating for a further 30 min at 37 °C.
# (§5) The samples were separated by electrophoresis on a 1% agarose gel at room temperature. The gels were stained with ethidium bromide 1 μg/mL in TAE buffer (0.04 M Tris-acetate and 0.001 M EDTA), transilluminated by UV light, and fluorescence emission was visualized by a CCD camera coupled to a Bio-Rad Gel Doc XR apparatus.
# as §1
# [8] = molecular target: T2, human topoisomerase II alpha (Homo sapiens, UniProt P11388); test: Topoisomerase II relaxation assay; format: biochemical; conditions: supercoiled pBR322; 60 min at 37 °C
# T2 construct: purchased Inspiralis
# T2 sequence (P11388 whole entry): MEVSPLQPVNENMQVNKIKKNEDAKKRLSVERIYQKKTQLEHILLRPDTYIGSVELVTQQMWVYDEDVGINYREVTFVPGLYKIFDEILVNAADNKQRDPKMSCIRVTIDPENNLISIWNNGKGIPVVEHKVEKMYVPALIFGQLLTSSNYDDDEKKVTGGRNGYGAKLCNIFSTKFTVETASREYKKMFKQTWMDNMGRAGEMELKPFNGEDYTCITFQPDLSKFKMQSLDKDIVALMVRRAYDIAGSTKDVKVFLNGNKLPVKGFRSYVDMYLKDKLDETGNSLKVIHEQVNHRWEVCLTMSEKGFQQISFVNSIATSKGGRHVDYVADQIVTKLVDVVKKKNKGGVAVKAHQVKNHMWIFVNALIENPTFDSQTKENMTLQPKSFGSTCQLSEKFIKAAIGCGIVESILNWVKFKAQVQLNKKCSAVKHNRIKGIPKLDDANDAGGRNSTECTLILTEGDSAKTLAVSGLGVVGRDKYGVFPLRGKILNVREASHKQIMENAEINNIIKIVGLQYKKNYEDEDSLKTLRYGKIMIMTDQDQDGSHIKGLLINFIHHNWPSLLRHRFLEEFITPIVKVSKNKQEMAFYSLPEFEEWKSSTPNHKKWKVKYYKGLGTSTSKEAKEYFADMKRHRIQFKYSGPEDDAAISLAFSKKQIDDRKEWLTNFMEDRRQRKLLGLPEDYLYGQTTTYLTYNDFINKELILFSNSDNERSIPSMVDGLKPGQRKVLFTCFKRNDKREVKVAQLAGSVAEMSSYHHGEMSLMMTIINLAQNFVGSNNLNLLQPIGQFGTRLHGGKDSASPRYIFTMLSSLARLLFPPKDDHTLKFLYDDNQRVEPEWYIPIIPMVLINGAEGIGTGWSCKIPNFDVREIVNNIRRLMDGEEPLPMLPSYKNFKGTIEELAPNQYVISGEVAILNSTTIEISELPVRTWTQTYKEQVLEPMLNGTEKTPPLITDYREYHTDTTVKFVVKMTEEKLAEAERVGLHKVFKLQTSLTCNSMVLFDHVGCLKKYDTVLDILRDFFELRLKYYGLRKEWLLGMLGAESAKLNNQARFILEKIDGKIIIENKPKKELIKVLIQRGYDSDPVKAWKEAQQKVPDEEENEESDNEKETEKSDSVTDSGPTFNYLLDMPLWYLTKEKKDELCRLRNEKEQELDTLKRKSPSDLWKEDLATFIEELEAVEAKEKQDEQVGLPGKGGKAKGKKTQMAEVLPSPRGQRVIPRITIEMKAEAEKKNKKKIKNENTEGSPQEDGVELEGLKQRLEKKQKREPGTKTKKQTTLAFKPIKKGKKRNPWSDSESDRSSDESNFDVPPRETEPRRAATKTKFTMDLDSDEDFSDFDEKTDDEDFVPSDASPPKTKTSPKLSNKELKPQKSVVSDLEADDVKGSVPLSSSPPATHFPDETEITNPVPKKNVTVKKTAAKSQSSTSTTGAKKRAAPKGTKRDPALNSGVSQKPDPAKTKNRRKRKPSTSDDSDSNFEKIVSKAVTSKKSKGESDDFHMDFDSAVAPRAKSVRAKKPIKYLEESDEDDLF
# Method: as §2, §3, §4, §5, §1
# [9] = system: MSTO-211H (biphasic mesothelioma); test: Cell growth assay (Trypan blue), MSTO-211H cells; format: cell-based, human; conditions: pure enantiomers
# Method: (§6) A2780 (human ovarian carcinoma) and HT-29 (human colorectal adenocarcinoma) were grown in RPMI 1640 (Sigma Chemical Co., St. Louis, MO, USA), and MSTO-211H (human biphasic mesothelioma) were grown in RPMI 1640 (Sigma Chemical Co.) supplemented with 2.38 g/L Hepes, 0.11 g/L pyruvate sodium, and 2.5 g/L glucose. Then, 1.5 g/L NaHCO3, 10% heat-inactivated fetal calf serum (Biowest), 100 U/mL penicillin, 100 μg/mL streptomycin, and 0.25 μg/mL amphotericin B (Sigma Chemical Co.) were added to the media. The cells were cultured at 37 °C in a moist atmosphere of 5% carbon dioxide in air. Cells (2.5–3 × 10^4) were seeded into each well of a 24-well cell culture plate. After incubation for 24 h, various concentrations of the test agents were added to the complete medium and incubated for a further 72 h. A Trypan blue assay was performed to determine cell viability. Cytotoxicity data were expressed as IC50 values, i.e., the concentration of the test compound able to induce a 50% reduction in cell number compared with control cultures.
# A2780 cells [10] = test: Measurement of reactive oxygen species (H2DCF-DA); format: cell-based, human; conditions: 50 μM, 120 min of incubation
# Method: The intracellular production of ROS was determined by using the cell-permeable fluorogenic probe 2′,7′-dichlorodihydrofluorescein diacetate (H2DCF-DA). A2780 cells (10^4) were seeded in 96-well plates and incubated for 24 h. The medium was then removed, and the cells washed with PBS and incubated with 10 μM H2DCF-DA in the dark for 20 min at 37 °C and 5% carbon dioxide in air. Afterwards, the medium was removed, cells washed with PBS, and PBS/10 mM glucose containing the test compound was added. ROS production was estimated by monitoring the fluorescence increase of the probe (λex = 480, λem = 530) using a PerkinElmer VICTOR X3 plate reader.
# [11] = system: A2780 (ovarian carcinoma); test: Cell growth assay (Trypan blue), A2780 cells; format: cell-based, human
# Method: as §6
# [12] = system: HT-29 (colorectal adenocarcinoma); test: Cell growth assay (Trypan blue), HT-29 cells; format: cell-based, human; conditions: Homo sapiens, HT-29, pure enantiomers, 72 h
# Method: as §6
# A2780 cells [13] = test: Cell cycle analysis (propidium iodide, flow cytometry); format: cell-based, human; conditions: 28 h, mean ± SD of four experiments
# Method: A2780 cells ([…]) were seeded into a 6-well culture plate in complete medium. After incubation for 24 h, the test compound was added at the indicated concentration and cells were incubated for a further 28 h. After treatment, cells were harvested, centrifugated, and 300–500 × 10^3 cells were fixed and permeabilized with 70% ice-cold ethanol at 4 °C for 20 min. The cells were washed twice with PBS and incubated in a staining solution containing 0.1 mg/mL RNAse and 36 μg/mL propidium iodide for 20 min at room temperature. The DNA content analysis was performed using a FACSCanto II flow cytometer (Becton-Dickinson, Mountain View, CA, USA).
compound,measurement,setting,value
"COc1cc(NS(C)(=O)=O)ccc1Nc1c2ccccc2nc2ccccc12 [m-AMSA, Meta-amsacrine]",IC50,[1],27 ± 5 nM
same,IC50,[2],39 ± 4 nM
same,IC50,[3],19 ± 1 nM
"COc1ccc(/C=C\c2cc(OC)c(OC)c(OC)c2)cc1OP(=O)(O)O [CA-4P, Combretastatin A4P]",IC50,[4],95 ± 6 nM
same,IC50,[5],2.9 nM
same,IC50,[6],79 ± 3 nM
"O=C(Sc1cccc2cccnc12)c1ccccc1Cl [QCBT7, Quinolin-chlorobenzothiazoate]",IC50,HCT-116,600 nM
"Cc1ccc2c(n1)[C@H](/N=C/c1ncc[nH]1)CCC2 [(R)-5a, (E)-1-(1H-imidazol-2-yl)-N-(2-methyl-5,6,7,8-tetrahydroquinolin-8-yl)methanimine]",modification in the electrophoretic migration of supercoiled plasmid DNA,[7],unable to induce any modification
same,effect on the relaxation ability of topoisomerase I,human topoisomerase I,unable to induce
same,effect on the relaxation ability of topoisomerase II,[8],unable to induce
same,IC50,"[9]; Homo sapiens, MSTO-211H, 72 h, Trypan blue",15100 ± 1500 nM
same,cytotoxic effect on MSTO-211H (in words),[9],appreciable inhibition on cell growth
same,intracellular amount of ROS with respect to untreated cells (control),A2780 cells [10],more than 4 fold
same,inhibitory effect on the A2780 cell line with respect to its counterpart (S)-5a,[11]; R enantiomer versus S enantiomer,~3 fold
same,IC50,"[11]; pure enantiomers, 72 h, Trypan blue",5400 ± 1300 nM
same,IC50,[12],> 20000 nM
same,cell percentage in G0/G1,A2780 cells [13]; 2.5 μM,61.2 ± 0.9%
same,cell percentage in G2/M,A2780 cells [13]; 2.5 μM,13.4 ± 0.7%
same,cell percentage in S,A2780 cells [13]; 2.5 μM,25.5 ± 0.6%
same,cell percentage in G0/G1,A2780 cells [13]; 5 μM,63.7 ± 0.6%
same,cell percentage in G2/M,A2780 cells [13]; 5 μM,12.1 ± 0.6%
same,cell percentage in S,A2780 cells [13]; 5 μM,24.1 ± 1.1%
same,cell percentage in G0/G1,A2780 cells [13]; 10 μM,70.3 ± 1.2%
same,cell percentage in G2/M,A2780 cells [13]; 10 μM,9.8 ± 0.6%
same,cell percentage in S,A2780 cells [13]; 10 μM,19.8 ± 0.9%
same,cell percentage in G0/G1,A2780 cells [13]; 20 μM,71.6 ± 0.7%
same,cell percentage in G2/M,A2780 cells [13]; 20 μM,9.0 ± 0.8%
same,cell percentage in S,A2780 cells [13]; 20 μM,19.5 ± 0.4%
